Reference: ChEMBL document CHEMBL3808371, “Design, synthesis and biological evaluation of diaziridinyl quinone isoxazole hybrids” (Eur J Med Chem, 2016)
Values after ≈ are worked out from the molar mass of the structure shown.

Experiments:
[1] = Cytotoxicity against human PC3 cells after 72 hrs by XTT assay; format: functional, cell-based; conditions: PC-3, 72 h
Bacillus subtilis [2] = experiment: Bactericidal activity against Bacillus subtilis MTCC 121 after 24 hrs by serial dilution method; format: functional; conditions: MTCC 121, 24 h
Micrococcus luteus [3] = experiment: Bactericidal activity against Micrococcus luteus MTCC 2470 after 24 hrs by serial dilution method; format: functional; conditions: MTCC 2470, 24 h
Raoultella planticola [4] = experiment: Antimicrobial activity against Klebsiella planticola MTCC 530 after 24 hrs by well diffusion method; format: functional; conditions: MTCC 530, 24 h
Raoultella planticola [5] = experiment: Bactericidal activity against Klebsiella planticola MTCC 530 after 24 hrs by serial dilution method; format: functional; conditions: MTCC 530, 24 h
Staphylococcus aureus [6] = experiment: Bactericidal activity against Staphylococcus aureus MTCC 96 after 24 hrs by serial dilution method; format: functional; conditions: MTCC 96, 24 h
Micrococcus luteus [7] = experiment: Antimicrobial activity against Micrococcus luteus MTCC 2470 after 24 hrs by well diffusion method; format: functional; conditions: MTCC 2470, 24 h
Staphylococcus aureus [8] = experiment: Antimicrobial activity against Staphylococcus aureus MLS16 MTCC 2940 after 24 hrs by well diffusion method; format: functional; conditions: MLS16 MTCC 2940, 24 h
Pseudomonas aeruginosa = experiment: Antimicrobial activity against Pseudomonas aeruginosa MTCC 2453 after 24 hrs by well diffusion method; format: functional; conditions: MTCC 2453, 24 h
Escherichia coli = experiment: Antimicrobial activity against Escherichia coli MTCC 739 after 24 hrs by well diffusion method; format: functional; conditions: MTCC 739, 24 h
A549 [9] = experiment: Cytotoxicity against human A549 cells after 72 hrs by XTT assay; format: functional, cell-based; conditions: A549, 72 h
A549 [10] = experiment: Selectivity ratio of IC50 for human A549 cells to IC50 for human PC3 cells; format: functional
Candida albicans = experiment: Antimicrobial activity against Candida albicans MTCC 3017 after 24 hrs by well diffusion method; format: functional; conditions: MTCC 3017, 24 h
Staphylococcus aureus [11] = experiment: Bactericidal activity against Staphylococcus aureus MLS16 MTCC 2940 after 24 hrs by serial dilution method; format: functional; conditions: MLS16 MTCC 2940, 24 h
Bacillus subtilis [12] = experiment: Antimicrobial activity against Bacillus subtilis MTCC 121 after 24 hrs by well diffusion method; format: functional; conditions: MTCC 121, 24 h
Staphylococcus aureus [13] = experiment: Antimicrobial activity against Staphylococcus aureus MTCC 96 after 24 hrs by well diffusion method; format: functional; conditions: MTCC 96, 24 h
A549 [14] = experiment: Cytotoxicity against human A549 cells; format: functional, cell-based
[15] = Cytotoxicity against human PC3 cells; format: functional, cell-based; conditions: PC-3

SMILES | IC50 [1] [nM] | MBC (Bacillus subtilis [2]) [µg/mL] | MBC (Micrococcus luteus [3]) [µg/mL] | MIC (Raoultella planticola [4]) [µg/mL] | MBC (Raoultella planticola [5]) [µg/mL] | MBC (Staphylococcus aureus [6]) [µg/mL] | MIC (Micrococcus luteus [7]) [µg/mL] | MIC (Staphylococcus aureus [8]) [µg/mL] | MIC (Pseudomonas aeruginosa) [µg/mL] | MIC (Escherichia coli) [µg/mL] | IC50 (A549 [9]) [nM] | Ratio IC50 (A549 [10]) | MIC (Candida albicans) [µg/mL] | MBC (Staphylococcus aureus [11]) [µg/mL] | MIC (Bacillus subtilis [12]) [µg/mL] | MIC (Staphylococcus aureus [13]) [µg/mL] | IC50 (A549 [14]) [nM] | IC50 [15] [nM]
CN(Cc1ccc(F)cc1)C(=O)c1ccc(-c2cc(C3=C(N4CC4)C(=O)C=C(N4CC4)C3=O)no2)s1 | 500 | 62.5 (≈ 124 µM) | > 125 | > 125 | > 125 | > 125 | 31.2 (≈ 61.8 µM) | 31.2 (≈ 61.8 µM) | > 125 | > 125 | 15300 | 30 | > 125 | > 125 | 15.6 (≈ 30.9 µM) | 62.5 (≈ 124 µM) |  | 
COc1ccc(C[C@H](N)C(=O)N[C@H]2[C@@H](O)[C@H](n3cnc4c(N(C)C)ncnc43)O[C@@H]2CO)cc1 [PUROMYCIN] |  |  |  |  |  |  |  |  |  |  |  |  |  |  |  |  | 600 | 700
